Assay results published in patent US6291449A, “Use of 11-phenyl-dibenzazepine compounds to treat diarrhea or scours” (Children's Medical Center Corporation, priority 1998, dated 2001).
Read-outs that look alike come from different tables or passages of the source.

How the values were obtained:
basolateral K+ channels [1] = experiment: K+ transport/conductance of basolateral membrane in apically permeabilized T84 monolayers; conditions: for increases in Isc and G in absence of K+: Na+ as sole permeant cation, 135 mM gradient; for effect on K+ transport (Isc and G): forskolin 10 μM, 135 mM K+ gradient; for duration of agonist-induced changes in Isc: permeabilized T84 monolayers; for activation of currents at positive transepithelial voltages: basolaterally directed K+ gradient
T84 cells = experiment: Electrogenic Cl- secretion (short circuit current) in intact T84 monolayers; format: cell-based, human; design: inhibition of Cl- secretory response to carbachol (Isc): dose or concentration left out as unconfirmed; conditions: for inhibition of chloride secretion: T84 cells
rabbit colonic mucosa = experiment: Ussing chamber studies using rabbit colonic mucosa; design: species or system rabbit (New Zealand)
[2] = tested on: apical membrane Cl- channels; experiment: 125I efflux from T84 monolayers (apical Cl- channel activity)
[3] = tested on: apical membrane Cl- channels; experiment: Cl- conductance of the apical plasma membrane in basolaterally permeabilized T84 monolayers; format: cell-based, human
[4] = tested on: intestinal fluid secretion induced by cholera toxin; design: species or system mouse (Balb/C); conditions: mouse, in vivo
basolateral K+ channel = experiment: 86Rb efflux from T84 monolayers (K+ channel activity); format: cell-based, human
[5] = biological target: T1, basolateral NaK2Cl cotransporters (Homo sapiens, UniProt P55011); experiment: 86Rb uptake in T84 monolayers (bumetanide-sensitive NaK2Cl cotransport); format: cell-based
T1 sequence (P55011 1-1212): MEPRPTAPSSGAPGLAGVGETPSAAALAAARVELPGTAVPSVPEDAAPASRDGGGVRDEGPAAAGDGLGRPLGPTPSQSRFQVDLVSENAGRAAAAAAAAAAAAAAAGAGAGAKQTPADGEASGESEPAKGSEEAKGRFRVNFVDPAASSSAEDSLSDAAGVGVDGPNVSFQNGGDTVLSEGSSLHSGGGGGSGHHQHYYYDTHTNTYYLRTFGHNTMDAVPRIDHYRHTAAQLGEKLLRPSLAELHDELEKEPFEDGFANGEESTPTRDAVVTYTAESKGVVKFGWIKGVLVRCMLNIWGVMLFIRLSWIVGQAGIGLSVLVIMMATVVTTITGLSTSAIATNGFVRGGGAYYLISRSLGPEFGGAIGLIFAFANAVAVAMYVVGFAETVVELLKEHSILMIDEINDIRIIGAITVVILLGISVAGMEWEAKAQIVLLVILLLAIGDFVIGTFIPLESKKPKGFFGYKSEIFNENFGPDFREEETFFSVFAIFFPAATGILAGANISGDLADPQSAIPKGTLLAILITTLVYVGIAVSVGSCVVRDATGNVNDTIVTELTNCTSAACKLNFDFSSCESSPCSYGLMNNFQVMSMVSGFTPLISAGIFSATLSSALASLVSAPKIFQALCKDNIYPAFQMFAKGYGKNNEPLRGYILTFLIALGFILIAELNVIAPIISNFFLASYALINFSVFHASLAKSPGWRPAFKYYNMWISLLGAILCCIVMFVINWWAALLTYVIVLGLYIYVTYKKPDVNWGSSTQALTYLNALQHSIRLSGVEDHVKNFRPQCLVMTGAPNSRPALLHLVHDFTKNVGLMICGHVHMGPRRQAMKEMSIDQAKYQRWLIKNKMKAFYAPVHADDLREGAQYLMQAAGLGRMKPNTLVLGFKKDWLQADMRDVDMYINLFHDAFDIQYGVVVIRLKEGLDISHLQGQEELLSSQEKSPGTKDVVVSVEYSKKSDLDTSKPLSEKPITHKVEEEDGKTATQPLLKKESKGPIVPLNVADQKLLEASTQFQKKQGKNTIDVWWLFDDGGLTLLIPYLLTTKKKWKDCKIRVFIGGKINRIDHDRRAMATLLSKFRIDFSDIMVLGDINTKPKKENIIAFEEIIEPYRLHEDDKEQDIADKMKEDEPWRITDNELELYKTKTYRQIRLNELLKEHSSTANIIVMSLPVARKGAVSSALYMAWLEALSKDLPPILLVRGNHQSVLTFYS
Method: A group of control and CLT treated (33 μM, for 30 min) monolayers were treated with bumetanide (10 μM for 12 min).

basolateral K+ channels [6] = tested on: basolateral K+ channels
[7] = carbachol (so in the source) stimulated, […]
[8] = clotrimazole 33 μM, final 30 min of 90 min preincubation
[9] = T84 cells, vs cells not treated with clotrimazole

OC(c1ccccc1)(c1ccccc1)c1ccccc1Cl [2-chlorophenyl-bis-phenyl methanol]
inhibition of time course of K+ transport after carbachol (basolateral K+ channels [1]; carbachol 100 μM (Ca++ agonist)): Nearly identical results | inhibition of time course of K+ transport after forskolin (basolateral K+ channels [1]; forskolin 10 μM (cAMP agonist)): Nearly identical results | inhibition of chloride secretion (T84 cells): effective at inhibiting chloride secretion

[Ba+2].[Cl-].[Cl-] [BaCl2]
effect on K+ transport induced by carbachol (basolateral K+ channels [1]; carbachol 100 μM after forskolin, BaCl2 3 mM): no detectable effect | inhibition of cAMP-sensitive IK (basolateral K+ channels [1]; forskolin 10 μM elicited, BaCl2 3 mM basolateral): greater than 70% | inhibition of Cl- secretory response to VIP (Isc) (T84 cells): strongly inhibited | inhibition of Cl- secretory response to carbachol (Isc) (T84 cells; [7]): no apparent affect

C[C@@H]1[C@H](O)[C@@H](C)/C=C/C=C/C=C/C=C/C=C/C=C/C=C/[C@H](O[C@@H]2O[C@H](C)[C@@H](O)[C@H](N)[C@@H]2O)C[C@@H]2O[C@](O)(C[C@@H](O)C[C@@H](O)[C@H](O)CC[C@@H](O)C[C@@H](O)CC(=O)O[C@H]1C)C[C@H](O)[C@H]2C(=O)O [amphotericin B]
increase in conductance on initial permeabilization (basolateral K+ channels [1]; amphotericin B, apical): 49±19%

C[N+](C)(C)CCOC(N)=O [carbachol]
increases in Isc and G in absence of K+ (basolateral K+ channels [1]): not detectable | time to return of IscK and GK to baseline (basolateral K+ channels [1]; after addition of carbachol): ≤ 5 min | carbachol-induced IscK, carbachol added after forskolin (basolateral K+ channels [1]; after forskolin): 180.7±15.7 μA/cm^2 | carbachol-induced IscK, carbachol added alone (basolateral K+ channels [1]; carbachol alone): 111.7±7.4 μA/cm^2 | effect on K+ transport (Isc and G) (basolateral K+ channels [1]): increased K+ currents | duration of agonist-induced changes in Isc (basolateral K+ channels [1]): short-lived | effect on Isc after forskolin (rabbit colonic mucosa; carbachol 100 μM added after forskolin): no firther effect

Clc1ccccc1C(c1ccccc1)(c1ccccc1)n1ccnc1 [clotrimazole]
rate constant for 125I efflux ([2]; VIP-stimulated, clotrimazole-treated monolayers, n=2 in duplicate): 0.0637 % uptake/minute | 125I loading of the cells [2, 8]: did not alter | effect on time course of 125I efflux, VIP ([2]; monolayers treated with VIP): little or no effect | effect on forskolin-stimulated Cl- conductances ([3]; symmetrical Cl- 142 mM): no detectable effect | effect on thapsigargin-stimulated Cl- conductances ([3]; symmetrical Cl- 142 mM): no detectable effect | effect on intestinal secretion in the absence of cholera toxin [4]: no effect | reduction of intestinal fluid secretion induced by cholera toxin [4]: 86% | inhibition of time course of K+ transport after carbachol (basolateral K+ channels [1]): significantly inhibited | inhibition of time course of K+ transport after forskolin (basolateral K+ channels [1]): significantly inhibited | inhibition of Ca++ stimulated 86Rb efflux (basolateral K+ channel; [9]): significantly inhibited | inhibition of baseline 86Rb efflux (basolateral K+ channel; [9]): significantly inhibited | reduction of rate constant for VIP-stimulated 86Rb efflux (basolateral K+ channel; VIP 5 μM, clotrimazole 33 μM): 87% | 86Rb loading of the cells (basolateral K+ channel; [8]): did not alter | rate constant for VIP-stimulated 86Rb efflux (basolateral K+ channel; clotrimazole-treated (vs 0.0465 untreated), n=2 in triplicate): 0.0062 % uptake/minute | rate constant for thapsigargin-stimulated 86Rb efflux (basolateral K+ channel; clotrimazole-treated (vs 0.048 untreated), n=2): 0.011 % uptake/minute | inhibition of 86Rb efflux stimulated with thapsigargin (basolateral K+ channel; compared with VIP-stimulated efflux): inhibited to a similar degree | inhibition at 33 µM ([5]; 0.5 h, read-out: reduction of total amount of 86Rb uptake): 53.6 ± 5.8% | effect on fractional component of 86Rb uptake that was bumetanide-sensitive ([5]; clotrimazole 33 μM, bumetanide 10 μM): no effect | inhibition of time course of forskolin induced Isc (rabbit colonic mucosa; clotrimazole 30 μM, forskolin 10 μM): inhibited strongly | apparent potency of inhibition, basolateral vs apical application (T84 cells): greater when applied basolaterally than apically | inhibition by basolateral application alone compared with both sides (T84 cells): almost as effective as incubation on both sides | inhibition of Cl- secretory response to VIP (Isc) (T84 cells): inhibited | inhibition of Cl- secretory response to carbachol (Isc) (T84 cells): inhibited | inhibition of Cl- secretory response to carbachol after pretreatment (T84 cells): inhibited strongly | inhibition of Cl- secretory response to ionomycin after pretreatment (T84 cells): inhibited strongly | inhibition of Cl- secretory response to thapsigargin after pretreatment (T84 cells): inhibited strongly | inhibition of cAMP and Ca++ elicited Cl- secretion (T84 cells): most potent inhibitor tested | inhibition of secretory response to 8Br-cAMP after pretreatment (T84 cells): inhibited | inhibition of secretory response to VIP after pretreatment (T84 cells): inhibited | inhibition of secretory response to forskolin after pretreatment (T84 cells): inhibited | inhibition of synergistic response to VIP plus carbachol (T84 cells): found to parallel the inhibition of secretion promoted by Ca^++ agonists alone | reversibility of inhibition of Cl- secretion (T84 cells): 96±2% | IC50 (T84 cells; Homo sapiens, T84, read-out: IC50, inhibition of secretory response to E. Coli heat-stabile toxin): 15 µM | potentiation of Cl- secretory responses to either agonist (T84 cells; low doses (10^-7 or less)): 5-10%

Clc1ccc(COC(Cn2ccnc2)c2ccc(Cl)cc2Cl)cc1 (stereo not shown) [econazole]
inhibition of chloride secretion (T84 cells): effective at inhibiting chloride secretion

C=C[C@@]1(C)CC(=O)[C@]2(O)[C@@]3(C)[C@@H](O)CCC(C)(C)[C@@H]3[C@H](O)[C@H](OC(C)=O)[C@@]2(C)O1 [forskolin]
effect on Cl- conductance over baseline ([3]; forskolin 10 μM basolateral, no clotrimazole): increased Cl- conductances significantly over baseline | reversal potential (I/V relations) (basolateral K+ channels [6]): -40 mV | increases in Isc and G in absence of K+ (basolateral K+ channels [1]): not detectable | activation of currents at positive transepithelial voltages (basolateral K+ channels [1]): activate macroscopic outwardly rectified (mucosal to serosal) currents | effect on K+ transport (Isc and G) (basolateral K+ channels [1]): brisk increase in K+ transport | duration of agonist-induced changes in Isc (basolateral K+ channels [1]): sustained

CC(=O)N1CCN(c2ccc(OCC3COC(Cn4ccnc4)(c4ccc(Cl)cc4Cl)O3)cc2)CC1 (stereo not shown) [ketoconazole]
inhibition of chloride secretion (T84 cells): effective at inhibiting chloride secretion

Clc1ccc(COC(Cn2ccnc2)c2ccc(Cl)cc2Cl)c(Cl)c1 (stereo not shown) [miconazole]
inhibition of chloride secretion (T84 cells): effective at inhibiting chloride secretion

C/C=C(/C)C(=O)O[C@H]1C(C)=C2[C@H]([C@@H]1OC(=O)CCCCCCC)[C@@](C)(OC(C)=O)C[C@H](OC(=O)CCC)[C@@]1(O)[C@H]2OC(=O)[C@@]1(C)O [thapsigargin]
reversal potential (I/V relations) (basolateral K+ channels [6]): -40 mV | activation of currents at positive transepithelial voltages (basolateral K+ channels [1]): activate macroscopic outwardly rectified (mucosal to serosal) currents

charybdotoxin
effect on K+ transport induced by subsequent forskolin (basolateral K+ channels [1]; charybdotoxin 100 nM): no detectable effect | inhibition of carbachol-induced Ca++ IK (basolateral K+ channels [1]; charybdotoxin 100 nM pretreatment): 50% | inhibition of Cl- secretory response to VIP (Isc) (T84 cells): minimal affects | inhibition of Cl- secretory response to carbachol (Isc) (T84 cells; [7]): strongly inhibited
